Measurements as given in patent US20230044787A1, “TRICYCLE DIHYDROIMIDAZOPYRIMIDONE DERIVATIVE, PREPARATION METHOD THEREOF, PHARMACEUTICAL COMPOSITION AND USE THEREOF” (priority 2019, published 2023).

Target: T1, Lp-PLA2 (Homo sapiens, UniProt Q13093)
T1 construct: aliquoted and thawed 40 μL of pooled human plasma was previously added; from tissue; host or cells: pooled human plasma
T1 sequence (Q13093 22-441): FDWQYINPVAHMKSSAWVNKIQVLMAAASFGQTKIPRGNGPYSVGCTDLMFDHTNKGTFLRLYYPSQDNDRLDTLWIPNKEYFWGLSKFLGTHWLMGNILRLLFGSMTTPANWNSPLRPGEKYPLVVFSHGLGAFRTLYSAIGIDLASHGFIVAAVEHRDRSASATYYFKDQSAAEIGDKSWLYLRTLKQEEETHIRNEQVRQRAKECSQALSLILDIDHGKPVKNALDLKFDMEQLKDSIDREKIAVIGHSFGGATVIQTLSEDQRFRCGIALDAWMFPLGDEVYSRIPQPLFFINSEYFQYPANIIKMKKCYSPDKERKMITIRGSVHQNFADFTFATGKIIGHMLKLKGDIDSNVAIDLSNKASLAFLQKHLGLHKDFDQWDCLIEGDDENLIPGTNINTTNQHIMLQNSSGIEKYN
Experiment: Lipoprotein-associated phospholipase A2 (Lp-PLA2) human plasma assay (Thio-PAF assay)
Type: biochemical
Settings: Lp-PLA2 human plasma assay (Thio-PAF), pooled human plasma, 30-min pre-incubation at room temperature
Experimental: Lipoprotein-Associated Phospholipase A2 (Lp-PLA2) Human Plasma Assay
The amount of sulfhydryl groups is continuously determined by the reaction with CPM (7-diethylamino-3-(4′-maleimidophenyl)-4-methylcoumarin), and the CPM is a maleimide of which fluorescence increases after Michael addition of sulfhydryl group. This assay can detect Lp-PLA2 activity in human plasma, as determined by specific inhibition of Lp-PLA2 inhibitors.
Thio-PAF assay was performed as quenched 75 μL assay. Compound source plate was prepared for each compound by preparing 1:3 (by volume) serial dilutions in pure DMSO in a 96-well microplate. The compound on the source plate was diluted 20-fold by transferring 3 μL of the compound from the compound source plate into a 96-well microplate pre-added with 57 μL of assay buffer by Rainin multichannel pipette. The assay buffer described above consisted of 50 mM HEPES, pH 7.4, 150 mM NaCl, 1 mM CHAPS. 1 μL of the 20-fold diluted compound was transferred by Rainin multichannel pipette into a 96-well Greiner 655076 (black) microplate to which aliquoted and thawed 40 μL of pooled human plasma was previously added. The plate was shaken for 20 seconds on a microplate shaker to mix well. After a 30-min pre-incubation at room temperature, 10 μL of substrate solution was added to the 96-well Greiner 655076 (black) microplate by Rainin multichannel pipette, in which the substrate solution contained 2.5 mM 2-thio-PAF [from ethanol stock], 32 μM CPM [from DMSO stock], and 3.2 mM NEM (N-ethylmaleimide) [freshly prepared in DMSO per experiment] in assay buffer consisting of 50 mM HEPES, pH 7.4; 150 mM NaCl; 1 mM CHAPS. After 2 min, the reaction was quenched with […] of 5% trifluoroacetic acid (TFA) in water. The plate was centrifuged at 2000 rpm for 1 minute. The plate was read at ex:380/em:485 using a Biotek Synergy H1 (H1MF) microplate reader. IC50 data, curves and QC analysis were performed using GraphPad Prism 6.0 and Excel.

SMILES | IC50
O=c1nc(OCc2cc(F)c(Oc3ccnc(C(F)(F)F)c3)c(F)c2)cc2n1CC13CCC(CC1)CN23 [Example 53, 3-((3,5-difluoro-4-((2-(trifluoromethyl)pyridin-4-yl)oxy)benzyl)oxy)-6,7,8,9-tetrahydro-1H,10H-7,9a-ethanopyrido[1′,2′:3,4] imidazo[1,2-c]pyrimidin-1-one] | 14.3 nM
CC12CCCN1c1cc(OCc3cc(F)c(Oc4ccnc(C(F)(F)F)c4)c(F)c3)nc(=O)n1C2 (centres unmarked) [Example 54, 3-((3,5-difluoro-4-((2-(trifluoromethyl)pyridin-4-yl)oxy)benzyl)oxy)-8a-methyl-7,8,8a,9-tetrahydro-1H,6H-pyrrolo[1′,2′:3,4]imidazo [1,2-c]pyrimidin-1-one] | 7.6 nM
CC12CCCN1c1cc(OCc3cc(F)c(Oc4ccnc(OC(F)(F)F)c4)c(F)c3)nc(=O)n1C2 (centres unmarked) [Example 55, 3-((3,5-difluoro-4-((2-(trifluoromethoxy)pyridin-4-yl)oxy)benzyl)oxy)-8a-methyl-7,8,8a,9-tetrahydro-1H,6H-pyrrolo[1′,2′:3,4]imidazo [1,2-c]pyrimidin-1-one] | 6.5 nM
CC12CCCN1c1cc(OCc3cc(F)c(Oc4cnc(C(F)(F)F)nc4)c(F)c3)nc(=O)n1C2 (centres unmarked) [Example 56, 3-((3,5-difluoro-4-((2-(trifluoromethyl)pyrimidin-5-yl)oxy)benzyl)oxy)-8a-methyl-7,8,8a,9-tetrahydro-1H,6H-pyrrolo[1′,2′:3,4]imidazo [1,2-c]pyrimidin-1-one] | 7.7 nM
Cn1cc(Oc2c(F)cc(COc3cc4n(c(=O)n3)CC3(C)CCCN43)cc2F)cn1 (centres unmarked) [Example 57, 3-((3,5-difluoro-4-((1-methyl-1H-pyrazol-4-yl)oxy)benzyl)oxy)-8a-methyl-7,8,8a,9-tetrahydro-1H,6Hpyrrolo[1′,2′:3,4] imidazo[1,2-c]pyrimidin-1-one] | 62.2 nM
CC12CCCN1c1cc(OCc3ccc(Oc4ccc(F)c(C(F)(F)F)c4)nc3)nc(=O)n1C2 (centres unmarked) [Example 58, 3-((6-(4-fluoro-3-(trifluoromethyl)phenoxy)pyridin-3-yl)methoxy)-8a-methyl-7,8,8a,9-tetrahydro-1H,6H-pyrrolo[1′,2′:3,4]imidazo [1,2-c]pyrimidin-1-one] | 204 nM
CC12CCCN1c1cc(OCc3ccc(Oc4cccc(C(F)(F)F)c4)c(C#N)c3)nc(=O)n1C2 (centres unmarked) [Example 59, 5-(((8a-methyl-1-oxo-7,8,8a,9-tetrahydro-1H,6H-pyrrolo[1′,2′:3,4]imidazo [1,2-c]pyrimidin-3-yl)oxy)methyl)-2-(3-(trifluoromethyl)phenoxy) benzonitrile] | 2.4 nM
CC12CCCN1c1cc(OCc3ccc(Oc4ccc(C(F)(F)F)cc4)c(C#N)c3)nc(=O)n1C2 (centres unmarked) [Example 60, 5-(((8a-methyl-1-oxo-7,8,8a,9-tetrahydro-1H,6H-pyrrolo[1′,2′:3,4]imidazo [1,2-c]pyrimidin-3-yl)oxy)methyl)-2-(4-(trifluoromethyl)phenoxy) benzonitrile] | 6.6 nM
CC12CCCN1c1cc(OCCc3ccc(Oc4ccc(Cl)c(C(F)(F)F)c4)cc3)nc(=O)n1C2 (centres unmarked) [Example 61, 3-(4-(4-chloro-3-(trifluoromethyl)phenoxy)phenethoxy)-8a-methyl-7,8,8a,9-tetrahydro-1H,6H-pyrrolo[1′,2′:3,4]imidazo [1,2-c]pyrimidin-1-one] | 3.4 nM
CC12CCCN1c1cc(OCc3ccc(F)c(F)c3)nc(=O)n1C2 (centres unmarked) [Example 62, 3-((3,4-difluorobenzyl)oxy)-8a-methyl-7,8,8a,9-tetrahydro-1H,6H-pyrrolo[1′,2′:3,4]imidazo [1,2-c]pyrimidin-1-one] | 13 nM
CCC12CCCN1c1cc(OCc3cc(F)c(Oc4ccnc(C(F)(F)F)c4)c(F)c3)nc(=O)n1C2 (centres unmarked) [Example 63, 3-((3,5-difluoro-4-((2-(trifluoromethyl)pyridin-4-yl)oxy)benzyl)oxy)-8a-ethyl-7,8,8a,9-tetrahydro-1H,6H-pyrrolo[1′,2′:3,4]imidazo [1,2-c]pyrimidin-1-one] | 8.7 nM
